According to PMC12040169 (PLOS Biology, 2025):

assay: in vitro; conditions: human, hela cells, % viability

Compound | viability at 28.5 h, 10 µM
c1ccc2cc(-c3cn4ccnc4c(NC4CCOCC4)n3)ccc2c1 [CBK066290] | 96.1%
O=C(CN1CCCC2(CCN(C(=O)Cc3c[nH]c4ccccc34)C2)C1)c1ccsc1 (stereo not shown) [CBK132053] | 96.3%
Cc1nnc(S)n1CC(=O)n1c2c(c3ccccc31)CCCC2 [CBK266244] | 106%
C=CCn1c(SCC(=O)N2c3ccccc3C(C)(c3ccccc3)CC2(C)C)nnc1-c1ccncc1 (stereo not shown) [CBK059171] | 83.3%
Cc1nonc1CNC(=O)N1CCOCC(C2CCC2)C1 (stereo not shown) [CBK304086] | 97.4%
COc1cnc(/C=C\c2ccccc2)c(NC(=O)c2cc(C)oc2C)n1 [CBK145222] | 95.1%
CC(C)CN1C(=O)c2ccc(C(=O)NCc3ccc(C(=O)O)cc3)cc2C1=O [CBK286898] | 116%
CN(C)c1ccc(CC(=O)N2CCc3ccccc3C2)cc1 [CBK200340] | 93.7%
O=C(Nc1ccccc1Nc1cc(-c2ccccc2)nn1-c1ccccc1)c1ccc(Br)cc1 [CBK261297] | 84.7%
COc1ccnc(N2CCN(C(=O)c3cncnc3C)CC2)n1 [CBK304894] | 104%
CCCCc1cc(C[C@@H]2C[C@H](NS(C)(=O)=O)C2(C)C)no1 [CBK289702] | 105%
COc1cccc(C(=O)Nc2ccc(O)c(C)c2)c1 [CBK264413] | 88.1%
Cc1cc(C[C@@H]2COC[C@H]2NCc2ccccc2Cl)on1 [CBK282969] | 94.8%
O=C1CCC(=O)N1CCn1c(=O)n(S(=O)(=O)c2cccc(Cl)c2)c2ccccc21 [CBK106493] | 93.1%
Cc1cccc(NC(=O)CCC(=O)N/N=C/c2cccnc2)c1 [CBK262023] | 103%
CN(CC1CCCCO1)C(=O)c1ccc(-c2ccccc2C(N)=O)cc1 (stereo not shown) [CBK306967] | 92.6%
N#Cc1ccc(COc2cccc(C(F)(F)F)c2)cc1 [CBK002811] | 103%
O=C(CN1CCCC2(CCN(C(=O)c3ccoc3)C2)C1)Nc1ccc(F)c(Cl)c1 (stereo not shown) [CBK132822] | 92.7%
O=C(CSCc1ccc(Cl)cc1Cl)Nc1ccc(O)cc1C(=O)O [CBK275322] | 95%
Cn1cc(CN(C(=O)c2nc(N)nc3c2CCCC3)C2CC2)cn1 [CBK307352] | 90.1%
COc1ccc(C2(NCc3c(C)nc4sccn34)CC2)cc1 [CBK282835] | 95.2%

Compound | viability at 28.5 h, 10 µM
CC(=O)c1ccc(-c2cc(C(=O)NCCc3cccnc3)cnc2-c2ccc(F)cc2)s1 [CBK036614] | 102%
O=C(O)C1CCCN(C(=O)Cn2ccc3ccc(OCc4ccccc4)cc32)C1 (stereo not shown) [CBK286814] | 89.6%
Cc1ccc(-c2nn3c(C)nnc3c3ccccc23)cc1S(N)(=O)=O [CBK268342] | 97.3%
CS(=O)(=O)c1nsc(Cl)n1 [CBK007229] | 87.9%
COc1cc(CN2CCN(C/C=C/c3ccccc3)CC2)cc(I)c1O [CBK261882] | 91.7%
CCOc1cc(/C=C2\SC(=S)N(Cc3cccnc3)C2=O)ccc1OCc1cccc(F)c1 [CBK264615] | 112%
CC(=O)NCCSc1cc(C(F)(F)F)ccn1 [CBK105297] | 107%
c1ccc(-c2nnc(Cn3cncn3)o2)cc1 [CBK011113] | 88%
CC(=O)N1CCc2cc(NC(=O)Cn3ccnc3C(C)C)ccc21 [CBK281471] | 90.1%
OC1CCN(Cc2c(-c3cccs3)[nH]c3ncccc23)CC1 [CBK283318] | 79.9%
CC1CCc2c(sc3ncnc(SC(C)C(=O)OC4CCCCC4)c23)C1 (stereo not shown) [CBK265050] | 104%
c1cnc(-c2ccoc2)c(NCCCN2CCOCC2)n1 [CBK036631] | 95.3%
c1ccc(N2CCN(c3cccc(-c4cc5ccccc5o4)n3)CC2)nc1 [CBK036875] | 107%
Cc1ncsc1C(=O)N1CCC2(C/C=C/C[C@H]3COCC[C@H]3NC(=O)[C@@H](CC(C)C)NC2=O)CC1 [CBK292187] | 107%
Cc1nc(=O)c(-c2ccccc2)c(C)n1-c1ccc(OCC(=O)O)cc1 [CBK286615] | 106%
N#Cc1ccc(NCC(=O)Nc2ccn(Cc3ccncc3)n2)cc1 [CBK306241] | 89.7%
O=C(CN1CCOCC1)N1CCN(C(=O)c2ccco2)CC1 [CBK144478] | 99.2%
COc1ccc(CCNC(=O)CSC(C)C(=O)O)cc1 (stereo not shown) [CBK297493] | 81.4%
O=C(NCc1cccc(C(F)(F)F)c1)c1cnoc1-c1ccc(Br)cc1 [CBK153718] | 96.9%
OC(CN1CCN(c2cccc(Cl)c2)CC1)Cn1c2ccccc2c2ccccc21 (stereo not shown) [CBK264333] | 98.2%
CC(C)[C@@H]1C[C@H](C(F)(F)F)n2nc(C3CCCNC3)cc2N1 (stereo partly shown) [CBK283056] | 98.6%

Compound | viability at 28.5 h, 10 µM
COc1ccc(CN[C@H]2[C@H](O)[C@@H](N3CCN(C(C)=O)CC3)[C@@H]3OC[C@H]2O3)cc1 [CBK288808] | 96.9%
COc1ccc(C(C)C)cc1-c1nc2ncccc2cc1NC(=O)C(C)C [CBK073659] | 87.8%
CN(C)CCn1c(=O)[nH]c2ncc(-c3ccoc3)nc21 [CBK064294] | 92.6%
O=C(Nc1sc2c(c1C(=O)O)CCC2)c1cccs1 [CBK152437] | 95.2%
CCCCC(c1cccnc1)N(C)C(=O)c1ccnc(-n2cnnc2)c1 (stereo not shown) [CBK306786] | 84.2%
COc1ccc(-c2ccnc(N[C@H]3CO[C@H]4[C@@H]3OC[C@@H]4NC(=O)C3CCCCC3)n2)cc1 [CBK289527] | 88.9%
Cn1nc2n(c1=O)CC(C(=O)NCCN1CCCc3ccccc31)CC2 (stereo not shown) [CBK307206] | 93.5%
Cc1nc2nc(-c3ccc(Cl)s3)cn2nc1C [CBK284565] | 103%
Cc1ccc(C2SCC(C(=O)O)N2C(=O)c2cccc(Cl)c2)cc1 (stereo not shown) [CBK286931] | 93.3%
CCCCN(CC(F)(F)F)C(=O)Cc1csc(NC(=O)C(C)C)n1 [CBK306217] | 99.5%
CCC1C=CCC(C(=O)O)C1C(=O)Nc1ccc(C(=O)N2CCOCC2)cc1 (stereo not shown) [CBK265798] | 102%
Ic1ccc2c3ccc(I)cc3c3[nH]c(-c4ccccc4)nc3c2c1 [CBK261218] | 92.9%
COC(=O)CCc1ccc(Oc2ncc(C(F)(F)F)cc2Cl)cc1 [CBK161628] | 111%
CCn1c(COc2ccccc2)nnc1Sc1ccc([N+](=O)[O-])cc1C=O [CBK267888] | 105%
Fc1cccc(Sc2nnnn2-c2ccccc2)c1 [CBK002906] | 108%
Cn1nnc2cc(NC(=O)NCc3csc(N4CCOCC4)n3)ccc21 [CBK307492] | 94.2%
COc1cc(OC)nc(N2CCN(c3nccnc3NS(=O)(=O)C3CC3)CC2)n1 [CBK048698] | 109%
COc1cccc(CC(=O)Nc2ncccc2C)c1 [CBK304982] | 98.9%
NC(=O)c1cc([N+](=O)[O-])ccc1NCCN1C(=O)c2ccc(C(=O)O)cc2C1=O [CBK264444] | 105%
c1ccc(C(=NCCN=C(c2ccccc2)c2ccccc2)c2ccccc2)cc1 [CBK262065] | 113%
CC1CC(C)CN(C(=O)Cn2c(-c3nonc3N)nc3ccccc32)C1 (stereo not shown) [CBK264694] | 89.7%

Compound | viability at 28.5 h, 10 µM
Cc1ccc(-c2nc(C)c(C(=O)NCc3ccnc(-n4ccnc4)c3)s2)o1 [CBK298322] | 105%
N#Cc1ccccc1Cn1cc(C(=O)COc2ccccc2)c2ccccc21 [CBK268532] | 90.5%
COc1ccccc1Nc1nc(N)nc(CSc2nc3ccccc3s2)n1 [CBK266747] | 95.7%
CCc1nn(CC(=O)OC(C)C)c(=O)c2cc3sccc3n12 [CBK284076] | 75.3%
CN(C)c1ccc(C(=O)N2CCC(c3cc4ncccc4[nH]3)CC2)cc1 [CBK284459] | 93.3%
CCC(C)NS(=O)(=O)c1ccc(OCC(=O)O)cc1 (stereo not shown) [CBK266521] | 120%
Cc1cc(-c2cn3ccnc3c(N3CCOCC3)n2)cc(C)c1O [CBK066691] | 97.4%
Cc1cn(C(C)C(=O)N(C)C)nc1C1CCCCC1 (stereo not shown) [CBK016092] | 113%
CC(C)Nc1cncc(Sc2ccccc2N)n1 [CBK093726] | 91.7%
O=C(COc1ccccc1)Nc1ccc2n(c1=O)C[C@H]1C[C@@H]2CN(C(=O)c2ccccc2)C1 [CBK289079] | 76.6%
COc1ccc(-n2c(SCC(=O)O)nnc2-c2cccs2)cc1 [CBK265636] | 118%
O=P(O)(CN1CCCCC1)C1CCCCC1O (stereo not shown) [CBK262325] | 87.1%
CC1(C)Cc2c(cnn2-c2ccc(F)cc2)C(N)C1 (stereo not shown) [CBK288200] | 91.9%
Cc1cc(-c2c(C)n(-c3ccccc3)[nH]c2=O)n2ncnc2n1 [CBK288441] | 89.4%
CCOC(=O)Cc1csc(NS(=O)(=O)c2ccc(OC(F)(F)F)cc2)n1 [CBK000852] | 110%
CCn1ncc(CN2CCCC(c3cc4cccnc4[nH]3)C2)c1C (stereo not shown) [CBK284700] | 96.9%
COCc1nnc(Sc2nc3ccccc3nc2NC(C)C)s1 [CBK115253] | 96.5%
CCn1c(=O)n(CC(=O)NC2CCCCC2)c2cccnc21 [CBK283810] | 83.6%
Fc1cccc2sc(Nc3nnc(-c4ccco4)o3)nc12 [CBK287480] | 82.6%
CC1CCCCN1Cc1nc2c(c(=O)n(C)c(=O)n2C)n1CCCc1ccccc1 (stereo not shown) [CBK269326] | 97%
O=C(c1ccccc1)c1ccc2[nH]c(-c3ccc(NC(=O)c4ccccc4Cl)cc3)nc2c1 [CBK262706] | 83.7%

same assay, conditions: human, hela cells, % viability, bulk resorufin, single well

Compound | viability at 28.5 h, 10 µM
COc1ccc(N2C(=O)/C(=C/c3ccc(OCC(=O)O)c(Cl)c3)C(=O)NC2=S)cc1 [CBK264018] | 93.7%
CCOc1ccc(N2C(=O)NC(=O)/C(=C\NCCc3c[nH]c4ccccc34)C2=O)cc1 [CBK261125] | 104%
Cc1cccc(N2C(=O)/C(=C/c3ccccc3OCc3ccc(C(=O)O)cc3)C(=O)NC2=S)c1 [CBK264100] | 95.3%
O=[N+]([O-])c1ccccc1CN1CCN(c2ccccc2Cl)CC1 [CBK261572] | 92%
